This note sets out measurements from patent US20210278408A1, “METHODS OF TREATMENT OF CANCER WITH SUBSTITUTED PYRROLE AND PYRAZOLE COMPOUNDS AND DIAGNOSIS OF CANCERS SUSCEPTIBLE TO TREATMENT WITH SUBSTITUTED PYRROLE AND PYRAZOLE COMPOUNDS” (Bantam Pharmaceutical, LLC, priority 2018, published 2021).

Where two headings read alike, the source gives them in different places. Some results are limits rather than exact numbers.

For data set [1], the system named is HCT-116. Nature of the data set: Anti-proliferative activity, CellTiter-Glo, 72 hours: HCT-116. It is filed as cell-based, human. Conditions: Homo sapiens, HCT-116 (colorectal cancer), Cell-Titre-Glo. As for the experimental part:
(§1) Anti-proliferative activity of BTM compounds. The anti-proliferative activities of Compound A197 and Compound B19 were compared to 4EGI-1 (a known cancer cell growth inhibitor) in a panel of 99 tumor lines. Methods: A panel of 96 tumor and 3 normal cell lines were tested for sensitivity to the test compound. The cell lines were cultured in standard media and pipetted into 96-well plates at the required plating densities. The cells were acclimated for 24 hours prior to compound testing. Compound was prepared as a stock of 20 mM in DMSO. To prepare dose response curves compound was serially diluted in DMSO and dispensed into the plate wells using a Tecan D300e digital dispenser. The final DMSO concentration was 0.15%. After 72 hours of incubation cell number was determined using the CellTiter-Glo® protocol according to the manufacturers instructions (Promega). In this assay, ATP is measured as a surrogate of cell number. The activity of the compound is determined by comparing untreated cells with treated cells and calculating the % of signal retained. Compound activity is measured as an EC50 of maximum level of efficacy and the two are used to compute an activity area. The table below provides a comparison of activity in a data sample.

The subject of data set [2] is A549. Nature of the data set: Anti-proliferative activity, CellTiter-Glo, 72 hours: A549. It is filed as cell-based, human. Conditions: Homo sapiens, A549 (non-small cell lung cancer), Cell-Titre-Glo. As for the experimental part:
as §1

The test system of data set [3] is Jurkat. The experiment in a line: Anti-proliferative activity, CellTiter-Glo, 72 hours: Jurkat. It is filed as cell-based, human. Conditions: Homo sapiens, Jurkat (T cell leukemia), Cell-Titre-Glo. Here is the method: as §1
The subject of data set [4] is SU-DHL-6. Nature of the data set: Anti-proliferative activity, CellTiter-Glo, 72 hours: SU-DHL-6. It is filed as cell-based, human. Conditions: Homo sapiens, SU-DHL-6 (B-cell lymphoma), Cell-Titre-Glo. Here is the method:
as §1

Data set [5] relates to panel of 96 tumor and 3 normal cell lines. The experiment in a line: Anti-proliferative activity in a panel of 99 cell lines, CellTiter-Glo, 72 hours. It is filed as cell-based, human. Conditions: for IC50: Homo sapiens, in responsive cell lines, read-out: activity range; for % of hematopoietic tumor lines being responsive / % of solid tumor lines being responsive: IC50<2 μM; for active in % of the tested cell lines (IC50<2 μM): all tested cell lines; for % of NSCLC tumor lines responsive / % of colorectal tumor lines responsive / % of sarcoma tumor lines responsive: among solid tumor lines; for activity in primary diploid cell lines: e.g. human umbilical vein endothelial cells and normal human lung fibroblasts (NHLF). Here is the method: as §1

Data set [6] has as its system MDA-MB-157. Nature of the data set: Anti-proliferative activity, CellTiter-Glo, 72 hours: MDA-MB-157. It is filed as cell-based, human. Conditions: Homo sapiens, MDA-MB-157, 72 h. As for the experimental part:
as §1

Data set [7] relates to SK-MEL-28. Nature of the data set: Anti-proliferative activity, CellTiter-Glo, 72 hours: SK-MEL-28. Conditions: Homo sapiens, SK-MEL-28 (melanoma), Cell-Titre-Glo. It is filed as cell-based, human. Here is the method:
as §1

In data set [8] the test system is NCI-H2122. The experiment in a line: Anti-proliferative activity, CellTiter-Glo, 72 hours: NCI-H2122. It is filed as cell-based, human. Conditions: Homo sapiens, NCI-H2122 (non-small cell lung cancer), Cell-Titre-Glo. Here is the method: as §1
Data set [9] deals with HUVEC. The experiment in a line: Anti-proliferative activity, CellTiter-Glo, 72 hours: HUVEC. It is filed as cell-based, human. Conditions: Homo sapiens, HUVEC (primary endolithial cells), Cell-Titre-Glo. Here is the method: as §1
The test system of data set [10] is SU-DHL-10. Nature of the data set: Anti-proliferative activity, CellTiter-Glo, 72 hours: SU-DHL-10. Conditions: Homo sapiens, SU-DHL10, SU-DHL-10 (B-cell lymphoma), Cell-Titre-Glo. It is filed as cell-based, human. As for the experimental part:
as §1

Data set [11] concerns JHH-6. Nature of the data set: Cell viability, CellTiter-Glo, 96 h: JHH-6. It is filed as cell-based. Conditions: for IC50: read-out: Absolute IC50. Here is the method:
(§2) Viability was determined by using the 50% inhibitory concentration (IC50) as determined with the CellTiter-Glo® Viability Assay (Promega). All cells were cultured under standard conditions in media supplemented with 10-15% Fetal Bovine Serum, at a temperature of 37° C., 5% CO2 and 95% humidity.
(§3) Cells were harvested during the logarithmic growth period, counted, and the cell concentration adjusted to 4.44×10^4 cells/mL using culture medium. A final cell density of 4×10^3 cells/well was added in a 90 μL cell suspension to plates A and B as shown.
(§4) Test plate B was incubated for 96 h in the humidified incubator at 37° C. with 5% CO2.
(§5) Following the incubation, the plate was equilibrated at room temperature for thirty minutes. CellTiter-Glo® (50 μL) was added to each well of the plate and contents mixed for five minutes on an orbital shaker to induce cell lysis. The luminescent signal was allowed to stabilize at room temperature for 20 minutes and the luminescence recorded.
(§6) IC50 (EC50) was calculated using a dose-response curve, fitted using a nonlinear regression model with a sigmoidal dose response. Survival rate was calculated using the formula:
(§7) The Surviving rate (%)=(LumTest article−LumMedium control)/(LumNon-treated−LumMedium control)×100%.
(§8) Absolute IC50 (EC50) was calculated according to the dose-response curve generated by the statistical software (GraphPad Prism 5.0).

Data set [12] deals with 143B. Nature of the data set: Cell viability, CellTiter-Glo, 96 h: 143B. Conditions: for IC50: read-out: Absolute IC50. It is filed as cell-based. Here is the method: as §2, §3, §4, §5, §6, §7, §8
Data set [13] concerns HUH-6 CLONE5. Nature of the data set: Cell viability, CellTiter-Glo, 96 h: HUH-6 CLONE5. It is filed as cell-based. Conditions: for IC50: read-out: Absolute IC50. Here is the method: as §2, §3, §4, §5, §6, §7, §8
Data set [14] relates to LS 174T. Nature of the data set: Cell viability, CellTiter-Glo, 96 h: LS 174T. It is filed as cell-based. As for the experimental part:
as §2, §3, §4, §5, §6, §7, §8

The nature of data set [15]: Pharmacokinetics in CD-1 mice, single oral dose compared to single intravenous dose. It is filed as in vivo. Conditions: for bioavailability: CD-1, mouse, po; for Cmax: blood plasma. Here is the method: Pharmacokinetic Properties of Compound A197 Compound A197 levels in blood plasma of CD-1 mice given a single, oral dose of the agent and compared to a single intravenous dose, were measured to assess basic pharmacokinetic parameters. A197 was dissolved in 1% NMP, 0.3% Tween-80 in 0.5% methylcellulose at a dose volume of 10 ml/kg. Following compound dosing, blood was collected by tail vein bleed at 30 minutes, 1, 2, 4, 8, 12, 24 and 48 hrs following dosing.

The subject of data set [16] is BJAB. The experiment in a line: Cell proliferation, Cell-Titre Glo, 72 hours: BJAB. It is filed as cell-based. Conditions: Homo sapiens, mean ± std. dev. Here is the method: NHLF, BJAB, SU-DHL-2, and HCT-116 cells were treated with Compound A197 for 4 hours prior to lysate harvest. Total cellular glutathione (GSH) levels were determined using a luminescent endpoint (GSH-Glo, Promega). Cell proliferation was determined using Cell-Titre Glo following 72 hours of compound treatment. All data shown is mean±SD of three biological replicates.

Setting [17] is: Cell No. 407, read-out: Absolute IC50.
[18] abbreviates: mouse, plasma, 0.5 mg/kg, Intravenous, 0.5 mpk.

For `COC(=O)c1c(-c2cccc(F)c2)c(C)nn1-c1nc(C2=CCC(C(F)(F)F)CC2)c(SC(C)C)s1` (single isomer, unassigned) [Compound B19, methyl 4-(3-fluorophenyl)-1-(5-(isopropylthio)-4-(4-(trifluoromethyl)cyclohex-1-en-1-yl)thiazol-2-yl)-3-methyl-1H-pyrazole-5-carboxylate], the IC50 is 343 nM in data set [1]; 189 nM in data set [2]; 166 nM in data set [3]; 538 nM in data set [4]; 100 to 2000 nM in data set [5]; over 30000 nM in data set [6]. Further, the IC50 was over 30000 nM in data set [7], 184 nM in [8], over 30000 nM in data set [9] and 119 nM in [10]. Further, the “% of hematopoietic tumor lines being responsive” value in data set [5] came to 90%. In addition, the “% of solid tumor lines being responsive” value in [5] came to 28%. Further, the “active in % of the tested cell lines (IC50<2 μM)” value in [5] amounted to 40%. Besides, the “% of NSCLC tumor lines responsive” value in data set [5] came to 80%. Besides, the “% of colorectal tumor lines responsive” value in data set [5] worked out at 37%. Moreover, the “% of sarcoma tumor lines responsive” value in data set [5] was 40%. The “activity in primary diploid cell lines” value in [5] is recorded as “tested negative”.
Regarding `N.N.[Cl][Pt][Cl]` [Cisplatin, reference compound], the “% inhibition at top conc.” value in [11] is 95.32%; in [12], 99.94%; in [13] it was 99.43%; in data set [14] (Cell No. 406) it was 96.60%; in data set [14] (Cell No. 407) it was 96.74%. For the same compound, the IC50 was found to be 3120 nM in data set [11]; 3200 nM in data set [12]; 6330 nM in data set [13]; 5890 nM in [14] (Cell No. 406, read-out: Absolute IC50); 8540 nM in data set [14] (setting [17]).
Regarding `Cc1nn(-c2nc(-c3ccc(C(F)(F)F)cc3)c(SC(C)C)s2)c(C(=O)O)c1-c1cccc(F)c1` [Compound A197, 4-(3-fluorophenyl)-1-(5-(isopropylthio)-4-(4-(trifluoromethyl)phenyl)thiazol-2-yl)-3-methyl-1H-pyrazole-5-carboxylic acid], the IC50 is 295 nM in data set [1]; 312 nM in data set [2]; 179 nM in data set [3]; over 30000 nM in [11]; 521 nM in data set [4]; over 30000 nM in data set [12] (Homo sapiens). Further, the IC50 is 100 to 2000 nM in [5]; over 30000 nM in data set [6]; over 30000 nM in [13]; over 30000 nM in data set [7]; 200 nM in [8]; 295 ± 110 nM in data set [16]. The IC50 is over 30000 nM in [14] (setting [17]); over 30000 nM in [14] (Homo sapiens, LS174T, Cell No. 406, read-out: Absolute IC50); over 30000 nM in [9]; 136 nM in [10]. In addition, the “% inhibition at top conc.” value in data set [11] worked out at 45.19%; in [12] it was 27.55%; in data set [13], 11.18%; in [14] (Cell No. 406), 15.79%; in data set [14] (Cell No. 407) it was 27.00%. Besides, the “% of hematopoietic tumor lines being responsive” value in [5] is given as 90%. Also, the “% of solid tumor lines being responsive” value in data set [5] is 28%. For the same compound, the “active in % of the tested cell lines (IC50<2 μM)” value in data set [5] is given as 40%. Further, in data set [5], the “% of NSCLC tumor lines responsive” value came out at 80%. The “% of colorectal tumor lines responsive” value in [5] is listed as 37%. Further, the “% of sarcoma tumor lines responsive” value in [5] is on record as 40%. For the same compound, in data set [5], the “activity in primary diploid cell lines” value is recorded as “tested negative”. Moreover, the bioavailability came out at 59.1% in data set [15] (plasma, 2.5 mg/kg, Oral, 2.5 mpk, read-out: % F) and 59% in [15] (plasma, 2.5 mg/kg, single oral dose compared to single intravenous dose, read-out: Bioavailability). Moreover, in data set [15] (Intravenous, 0.5 mpk), the t1/2 was found to be 5.6 h. In addition, the Cmax was found to be 2880 ng/mL in data set [15] (mouse, 0.5 mg/kg, Intravenous, 0.5 mpk) and 2610 ng/mL in data set [15] (mouse, 2.5 mg/kg, Oral, 2.5 mpk). For the same compound, the AUC(0-inf) in data set [15] (setting [18]) was 14500 ng·h/mL; in [15] (mouse, plasma, 2.5 mg/kg, Oral, 2.5 mpk) it was 42900 ng·h/mL. Besides, in data set [15] (setting [18]), the clearance was 0.58 mL/min/kg. For the same compound, in data set [15] (mouse, plasma, 0.5 mg/kg, Intravenous, 0.5 mpk, read-out: Vss), the Vd stood at 0.285 L/kg. For the same compound, the Tmax in data set [15] (mouse, plasma, 2.5 mg/kg, single oral dose, read-out: Plasma drug tmax) is 6 h. For the same compound, the half-life in data set [15] (mouse, plasma, iv, 0.5 mg/kg) is 5.6 h.
